Measurements as given in paper PMC7413254 (Nature Communications, 2020).
Several values for one entry are separate records, joined by “and”; a condition that tells them apart may be missing. Equal entries are not always repeated. Where two headings read alike, the source gives them in different places.

Legend:
PfCRT^3D7 [1] = target: T1, PfCRT^3D7 (Plasmodium falciparum, UniProt Q8IBZ9); assay: cell-based; type: cell-based
Source text: (§1) The orientation of PfCRT in the parasite’s DV membrane, and also in the oocyte plasma membrane, is such that its N- and C-termini extend into the cytosol. The oocytes were suspended in a reaction buffer adjusted to pH 5.5 to mimic the pH of the DV lumen[1],[2]. In this scenario, the transport of a substrate via PfCRT from the acidic extracellular solution into the oocyte cytosol[15] is analogous to the parasite’s PfCRT-mediated efflux of a substrate from the acidic DV and into the cytosol. Unless specified otherwise, this is the direction in which substrate transport was measured in the oocyte assays.
(§2) Unless specified otherwise, the transport assays were conducted over 1.5 h at 27.5 °C and the reaction buffer was ND96 (96 mM NaCl, 2 mM KCl, 1 mM MgCl2, 1.8 mM CaCl2, 10 mM MES and 10 mM Tris-base) at pH 5.5.
(§3) Ten oocytes were washed twice with the relevant ND96 buffer. […] The assay was terminated by removing the reaction buffer and washing the oocytes with ice-cold ND96 buffer. The oocytes were lysed in 10% (w/v) sodium dodecyl sulfate (SDS) and the radioactivity accumulated within each oocyte was measured with a MicroBeta^2 microplate liquid scintillation analyser (PerkinElmer).
(§4) At least four independent experiments were performed (on different days and using oocytes from different frogs), and within each experiment measurements were made from ten oocytes per treatment.

non-expressing oocytes [2] = assay: cells; type: cell-based, Xenopus laevis
Source text: as §1, §2, §3, §4

non-expressing oocytes [3] = type: cell-based, Xenopus laevis; details: for Trans-stimulation: total [3H]CQ transport, non-expressing oocytes: mean ± SEM, SEM
Procedure: as §2
The intracellular concentrations were calculated using previous estimates of the volume of stage V–VI oocytes (~400 nL[60]). […] The oocytes were injected with VF-6 suspended in 25 nL ND96 buffer adjusted to pH 5.0, 5.5, 6.0 or 7.0, which corresponded to the injection of 2.5–250 fmol of H^+. The Na^+-dependence of the trans-stimulatory effect of VF-6 was assessed by injecting the oocytes with VF-6 suspended in ND96 buffer (pH 5.5) or a Na^+-free version of this buffer (the Na^+ was replaced with choline).
as §4

PfNT1 = target: T2, PfNT1 (Plasmodium falciparum, UniProt Q8IDM6); assay: cell-based; type: cell-based; details: for Trans-stimulation data: total [3H]CQ transport: PfNT1 oocytes, normalised to the oocyte type control (control = 100); for Trans-stimulation data: total [3H]CQ transport / Trans-stimulation: total [3H]CQ transport, PfNT1 oocytes: footnote b: highest intracellular concentration tested was 30 mM (solubility); for Trans-stimulation: total [3H]CQ transport, PfNT1 oocytes: mean ± SEM, SEM
T2 construct: expressed in transfected cells; host or cells: Xenopus laevis oocytes (stage V-VI), cRNA-injected
T2 sequence (Q8IDM6 whole entry): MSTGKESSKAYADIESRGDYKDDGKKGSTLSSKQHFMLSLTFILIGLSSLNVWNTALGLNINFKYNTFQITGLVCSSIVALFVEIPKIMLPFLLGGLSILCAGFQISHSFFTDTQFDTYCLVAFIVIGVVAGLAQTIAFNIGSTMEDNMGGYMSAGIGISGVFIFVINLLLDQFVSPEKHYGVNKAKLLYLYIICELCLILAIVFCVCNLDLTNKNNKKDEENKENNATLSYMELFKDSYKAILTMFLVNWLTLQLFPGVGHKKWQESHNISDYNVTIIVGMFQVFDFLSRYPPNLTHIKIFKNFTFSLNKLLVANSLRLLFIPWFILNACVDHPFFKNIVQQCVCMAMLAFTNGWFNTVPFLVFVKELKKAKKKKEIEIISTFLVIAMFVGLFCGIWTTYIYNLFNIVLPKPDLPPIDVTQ
Procedure, shortened: (§5)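 Transport measured in Xenopus oocytes expressing the transporters, 1.5 h at 27.5 °C in ND96 pH 5.5 unless noted. For trans-stimulation, VF-6 injected in 25 nL ND96 at pH 5.0–7.0 or Na^+-free (choline) buffer; intracellular levels based on ~400 nL oocyte volume. Ten oocytes per treatment, ≥4 experiments.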

PfCRT^3D7 [4] = target: T1, PfCRT^3D7; assay: cell-based; type: cell-based; details: for Trans-stimulation data: total [3H]CQ transport / PfCRT-mediated [3H]CQ transport, trans-stimulation (% PfCRT3D7 control): PfCRT3D7 oocytes; for Trans-stimulation data: total [3H]CQ transport / Trans-stimulation: total [3H]CQ transport, PfCRT3D7 oocytes: footnote b: highest intracellular concentration tested was 30 mM (solubility); for Trans-stimulation data: total [3H]CQ transport: normalised to the oocyte type control (control = 100); for Trans-stimulation: total [3H]CQ transport, PfCRT3D7 oocytes: mean ± SEM, SEM
Procedure, shortened: as §5

PfCRT^Ecu1110 [5] = target: T3, PfCRT^Ecu1110 (Plasmodium falciparum, UniProt Q9N623, A220S/I356L/K76T/N326D); assay: cell-based; type: cell-based; details: for Trans-stimulation data: total [3H]CQ transport / PfCRT-mediated [3H]CQ transport, trans-stimulation (% PfCRTEcu1110 control): PfCRTEcu1110 oocytes; for Trans-stimulation data: total [3H]CQ transport / Trans-stimulation: total [3H]CQ transport, PfCRTEcu1110 oocytes: footnote b: highest intracellular concentration tested was 30 mM (solubility); for Trans-stimulation data: total [3H]CQ transport: normalised to the oocyte type control (control = 100); for Trans-stimulation: total [3H]CQ transport, PfCRTEcu1110 oocytes: mean ± SEM, SEM
T3 sequence (Q9N623 whole entry A220S/I356L/K76T/N326D): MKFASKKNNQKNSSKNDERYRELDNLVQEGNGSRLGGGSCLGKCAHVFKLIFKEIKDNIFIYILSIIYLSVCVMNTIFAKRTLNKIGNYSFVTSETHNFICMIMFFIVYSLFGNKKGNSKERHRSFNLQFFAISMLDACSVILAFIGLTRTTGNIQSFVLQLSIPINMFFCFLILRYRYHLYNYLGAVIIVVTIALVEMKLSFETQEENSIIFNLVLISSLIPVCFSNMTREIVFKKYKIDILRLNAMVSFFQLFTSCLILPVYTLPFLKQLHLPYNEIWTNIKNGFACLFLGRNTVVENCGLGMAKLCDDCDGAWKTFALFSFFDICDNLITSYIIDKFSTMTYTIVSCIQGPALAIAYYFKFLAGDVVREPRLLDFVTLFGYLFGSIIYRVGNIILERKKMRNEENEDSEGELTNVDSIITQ
Procedure, shortened: as §5

PfCRT^Dd2 [6] = target: T4, PfCRT^Dd2 (Plasmodium falciparum, UniProt Q9N623, A220S/I356T/K76T/M74I/N326S/N75E/Q271E/R371I); assay: cell-based; type: cell-based; details: for Trans-stimulation data: total [3H]CQ transport / PfCRT-mediated [3H]CQ transport, trans-stimulation (% PfCRTDd2 control): PfCRTDd2 oocytes; for Trans-stimulation data: total [3H]CQ transport / Trans-stimulation: total [3H]CQ transport, PfCRTDd2 oocytes: footnote b: highest intracellular concentration tested was 30 mM (solubility); for Trans-stimulation data: total [3H]CQ transport: normalised to the oocyte type control (control = 100); for PfCRT-mediated [3H]CQ transport, trans-stimulation by injected solute, PfCRTDd2: background subtracted; for Trans-stimulation: total [3H]CQ transport, PfCRTDd2 oocytes: mean ± SEM, SEM
T4 sequence (Q9N623 whole entry A220S/I356T/K76T/M74I/N326S/N75E/Q271E/R371I): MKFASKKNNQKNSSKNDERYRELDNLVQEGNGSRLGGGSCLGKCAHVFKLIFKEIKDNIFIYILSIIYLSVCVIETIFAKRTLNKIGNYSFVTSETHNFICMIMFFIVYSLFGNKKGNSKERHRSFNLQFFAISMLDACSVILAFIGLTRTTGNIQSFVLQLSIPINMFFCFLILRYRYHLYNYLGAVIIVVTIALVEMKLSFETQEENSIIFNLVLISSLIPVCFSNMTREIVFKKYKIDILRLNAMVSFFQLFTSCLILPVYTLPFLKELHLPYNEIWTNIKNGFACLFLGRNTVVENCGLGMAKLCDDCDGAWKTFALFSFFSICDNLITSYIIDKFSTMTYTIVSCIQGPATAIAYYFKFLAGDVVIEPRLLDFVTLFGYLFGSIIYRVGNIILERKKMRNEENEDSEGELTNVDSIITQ
Procedure, shortened: as §5

PfCRT^Ecu1110 [7] = target: T3, PfCRT^Ecu1110; assay: [3H]CQ uptake into Xenopus oocytes, cis-inhibition by unlabelled solute; type: cell-based; details: PfCRTEcu1110 oocytes, background [3H]CQ accumulation subtracted, normalised to oocyte type control
Procedure, shortened: (§6)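 Washed oocytes (ten per treatment) were exposed to label in pH 5.5 ND96 for 1.5 h at 27.5 °C. Buffer was then removed, cells rinsed in ice-cold ND96, lysed in SDS and counted.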

PfCRT^Dd2 [8] = target: T4, PfCRT^Dd2; assay: as above; type: cell-based; details: PfCRTDd2 oocytes, background [3H]CQ accumulation subtracted, normalised to oocyte type control
Procedure, shortened: as §6

[9] = footnote b: highest intracellular concentration tested was 30 mM (solubility)
[10] = trans-stimulation, footnote b: due to solubility the highest intracellular concentration tested was 30 mM, normalised to the oocyte type control = 100
[11] = footnote b: due to solubility the highest intracellular concentration tested was 30 mM
[12] = [test solute]i = 5 mM (intracellular), normalised to oocyte type control
[13] = cell marked b: highest intracellular concentration tested was 30 mM due to solubility

T1 sequence (Q8IBZ9 59-398): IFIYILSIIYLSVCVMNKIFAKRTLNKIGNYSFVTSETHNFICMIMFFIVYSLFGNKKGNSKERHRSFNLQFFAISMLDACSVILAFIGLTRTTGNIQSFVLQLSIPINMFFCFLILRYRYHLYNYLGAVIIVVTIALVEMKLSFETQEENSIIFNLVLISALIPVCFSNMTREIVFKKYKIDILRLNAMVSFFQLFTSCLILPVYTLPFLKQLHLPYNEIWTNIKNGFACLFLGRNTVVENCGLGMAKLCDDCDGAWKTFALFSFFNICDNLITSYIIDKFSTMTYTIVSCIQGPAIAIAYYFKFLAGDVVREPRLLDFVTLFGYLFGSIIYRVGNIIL

## O=C(O)CCC(=O)O [Succinate]
PfCRT^3D7 [1]
  Cis-inhibition data: total [3H]CQ transport, normalised to the oocyte type control: 100 ± 9.7 and 100 ± 3.8 and 99 ± 3.7
  Total [3H]CQ transport, cis-inhibition by solute: 4.2 ± 0.03 and 3.6 ± 0.06 and 3.9 ± 0.1
non-expressing oocytes [2]
  Cis-inhibition data: total [3H]CQ transport, normalised to the oocyte type control: 101 ± 4.7 and 101 ± 5.3 and 100 ± 5.3
  Total [3H]CQ transport, cis-inhibition by solute: 2.4 ± 0.06 and 2.8 ± 0.03 and 2.2 ± 0.06
non-expressing oocytes [3]
  Total [3H]CQ transport, trans-stimulation by injected solute: 3.1 ± 0.03 and 2.2 ± 0.05
  Trans-stimulation data: total [3H]CQ transport, normalised to the oocyte type control: 100 ± 3.7 and 99 ± 3.3
PfNT1
  Total [3H]CQ transport, trans-stimulation by injected solute: 2.6 ± 0.04 and 3.3 ± 0.08
  Trans-stimulation data: total [3H]CQ transport, normalised to the oocyte type control: 101 ± 3.7 and 98 ± 3.0
PfCRT^3D7 [4]
  PfCRT-mediated [3H]CQ transport, trans-stimulation by injected solute, PfCRT3D7: 0.8 ± 0.04 and 0.6 ± 0.02
  Total [3H]CQ transport, trans-stimulation by injected solute: 3.8 ± 0.1 and 3.6 ± 0.03
  Trans-stimulation data: PfCRT-mediated [3H]CQ transport: 99 ± 3.9 and 96 ± 4.0
  Trans-stimulation data: total [3H]CQ transport, normalised to the oocyte type control: 101 ± 2.7 and 98 ± 3.7

## VHLTPEEKSAVT [VT-12]
non-expressing oocytes [3]; [9]
  Trans-stimulation: total [3H]CQ transport, non-expressing oocytes: 2.2 ± 0.03b % of PfCRTDd2 control
PfNT1
  Trans-stimulation data: total [3H]CQ transport: 100 ± 2.8b
  Trans-stimulation: total [3H]CQ transport, PfNT1 oocytes: 2.7 ± 0.06b % of PfCRTDd2 control
PfCRT^3D7 [4]; 2nd of 6 trans-stimulation columns, footnote b: due to solubility the highest intracellular concentration tested was 30 mM, normalised to the oocyte type control = 100
  Trans-stimulation data: PfCRT-mediated [3H]CQ transport: 97 ± 2.9b
PfCRT^3D7 [4]
  Trans-stimulation data: total [3H]CQ transport: 99 ± 3.5b
  Trans-stimulation: total [3H]CQ transport, PfCRT3D7 oocytes: 3.1 ± 0.06b % of PfCRTDd2 control
PfCRT^Ecu1110 [5]
  Trans-stimulation data: total [3H]CQ transport: 101 ± 3.2b
  Trans-stimulation: total [3H]CQ transport, PfCRTEcu1110 oocytes: 33 ± 1.6b % of PfCRTDd2 control
PfCRT^Ecu1110 [5]; [10]
  Trans-stimulation data: PfCRT-mediated [3H]CQ transport: 99 ± 2.9b
PfCRT^Dd2 [6]
  Trans-stimulation data: total [3H]CQ transport: 100 ± 2.6b
  Trans-stimulation: total [3H]CQ transport, PfCRTDd2 oocytes: 100 ± 2.6b % of PfCRTDd2 control
PfCRT^Dd2 [6]; [11]
  PfCRT-mediated [3H]CQ transport, trans-stimulation by injected solute, PfCRTDd2: 98 ± 2.2b % of PfCRTDd2 control
PfCRT^Dd2 [6]; [10]
  Trans-stimulation data: PfCRT-mediated [3H]CQ transport: 98 ± 2.2b

## YFPHFDLS [YS-8]
PfCRT^Ecu1110 [7]; [test solute] = 0.5 mM
  PfCRT-mediated [3H]CQ transport, cis-inhibition (% PfCRTEcu1110 control): 43 ± 3.2 % PfCRTEcu1110 control
PfCRT^Ecu1110 [7]; [test solute] = 1 mM
  PfCRT-mediated [3H]CQ transport, cis-inhibition (% PfCRTEcu1110 control): 33 ± 2.6 % PfCRTEcu1110 control
PfCRT^Ecu1110 [7]; [test solute] = 2 mM
  PfCRT-mediated [3H]CQ transport, cis-inhibition (% PfCRTEcu1110 control): 25 ± 1.5 % PfCRTEcu1110 control
PfCRT^Dd2 [8]; [test solute] = 0.5 mM
  PfCRT-mediated [3H]CQ transport, cis-inhibition (% PfCRTDd2 control): 38 ± 2.7 % PfCRTDd2 control
PfCRT^Dd2 [8]; [test solute] = 1 mM
  PfCRT-mediated [3H]CQ transport, cis-inhibition (% PfCRTDd2 control): 28 ± 0.5 % PfCRTDd2 control
PfCRT^Dd2 [8]; [test solute] = 2 mM
  PfCRT-mediated [3H]CQ transport, cis-inhibition (% PfCRTDd2 control): 17 ± 0.1 % PfCRTDd2 control
non-expressing oocytes [3]; [9]
  Trans-stimulation: total [3H]CQ transport, non-expressing oocytes: 2.8 ± 0.05b % of PfCRTDd2 control
non-expressing oocytes [3]; non-expressing oocytes, footnote b: highest intracellular concentration tested was 30 mM (solubility), normalised to the oocyte type control (control = 100)
  Trans-stimulation data: total [3H]CQ transport: 100 ± 2.8b
PfNT1
  Trans-stimulation data: total [3H]CQ transport: 98 ± 3.5b
  Trans-stimulation: total [3H]CQ transport, PfNT1 oocytes: 3.3 ± 0.08b % of PfCRTDd2 control
PfCRT^3D7 [4]
  Trans-stimulation data: total [3H]CQ transport: 100 ± 3.5b
  Trans-stimulation: total [3H]CQ transport, PfCRT3D7 oocytes: 3.1 ± 0.04b % of PfCRTDd2 control
PfCRT^3D7 [4]; [12]
  PfCRT-mediated [3H]CQ transport, trans-stimulation (% PfCRT3D7 control): 96 ± 2.8 % PfCRT3D7 control
PfCRT^3D7 [4]; [13]
  PfCRT-mediated [3H]CQ transport, trans-stimulation (% PfCRT3D7 control): 98 ± 2.8b % PfCRT3D7 control
PfCRT^Ecu1110 [5]
  Trans-stimulation data: total [3H]CQ transport: 99 ± 3.8b
  Trans-stimulation: total [3H]CQ transport, PfCRTEcu1110 oocytes: 32 ± 1.9b % of PfCRTDd2 control
PfCRT^Ecu1110 [5]; [12]
  PfCRT-mediated [3H]CQ transport, trans-stimulation (% PfCRTEcu1110 control): 98 ± 3.1 % PfCRTEcu1110 control
PfCRT^Ecu1110 [5]; [13]
  PfCRT-mediated [3H]CQ transport, trans-stimulation (% PfCRTEcu1110 control): 97 ± 1.5b % PfCRTEcu1110 control
PfCRT^Dd2 [6]
  Trans-stimulation data: total [3H]CQ transport: 99 ± 2.8b
  Trans-stimulation: total [3H]CQ transport, PfCRTDd2 oocytes: 99 ± 2.8b % of PfCRTDd2 control
PfCRT^Dd2 [6]; [12]
  PfCRT-mediated [3H]CQ transport, trans-stimulation (% PfCRTDd2 control): 98 ± 1.1 % PfCRTDd2 control
PfCRT^Dd2 [6]; [13]
  PfCRT-mediated [3H]CQ transport, trans-stimulation (% PfCRTDd2 control): 97 ± 1.7b % PfCRTDd2 control
PfCRT^Dd2 [6]; [11]
  PfCRT-mediated [3H]CQ transport, trans-stimulation by injected solute, PfCRTDd2: 97 ± 1.7b % of PfCRTDd2 control
